Columns and labels:
[1] = dimethyl isosorbate as solvent; cited from earlier work
[2] = pH of KSA / KASA formulas; format: physicochemical
Experimental: In 50 ml water, 37 gms KOH are mixed with 76 gms SA. […] Administration is by gradual ingestion by sipping. A much higher dose of 2 gm KSA can be administered as needed using two 1 gm doses separated by an interval of time so that the doses overlap closely.
An example of a topical KSA is as follows: Using the supersaturated KSA formula of Example 1, a topical formula was prepared as follows: 225 ml Aloe Vera Gel was mixed with 2½ ml liquid castile soap (Dr. Bronner's was used), and 2½ ml vegetable glycerin. Dry ingredients of 900 mg citric acid, 600 mg guar gum and 14 gm dehydrated KSA are separately mixed.

[3] = 1 gm dehydrated product mixed with 225 ml water

| Compound | concentration of ASA achieved in solution [1] | pH [2, 3] | pH ([2]; concentrated solution as prepared, before dehydration) |
| --- | --- | --- | --- |
| CC(=O)Oc1ccccc1C(=O)O [ASA, acetylsalicylic acid] | 280 mg of ASA/ml |  |  |
| O=C(O)c1ccccc1O.[K] [KSA, potassium salicylic acid] |  | 8.90 | 12.0-13.0 |
| CC(=O)Oc1ccccc1C(=O)[O-].[K+] [KASA, potassium acetylsalicyclic acid] |  | 8.42 |  |
